Laboratory results reported in US10670605B2, “Cysteine reactive probes and uses thereof” (The Scripps Research Institute, priority 2015, dated 2020).

Key:
Assay in all cases: Competitive isoTOP-ABPP in situ (fragment-treated cells)
Format in all cases: cell-based
[1] = target: T1, cysteines in MDA-MB-231 and Ramos cells (Homo sapiens, UniProt Q99757)
T1 sequence (Q99757 60-166): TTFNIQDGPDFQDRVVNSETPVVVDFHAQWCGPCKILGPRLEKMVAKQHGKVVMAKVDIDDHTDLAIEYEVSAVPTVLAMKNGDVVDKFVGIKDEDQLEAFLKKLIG

[2] = target: T2, cysteines in MDA-MB-231 and Ramos cells (Homo sapiens, UniProt O95229)
T2 sequence (O95229 1-277): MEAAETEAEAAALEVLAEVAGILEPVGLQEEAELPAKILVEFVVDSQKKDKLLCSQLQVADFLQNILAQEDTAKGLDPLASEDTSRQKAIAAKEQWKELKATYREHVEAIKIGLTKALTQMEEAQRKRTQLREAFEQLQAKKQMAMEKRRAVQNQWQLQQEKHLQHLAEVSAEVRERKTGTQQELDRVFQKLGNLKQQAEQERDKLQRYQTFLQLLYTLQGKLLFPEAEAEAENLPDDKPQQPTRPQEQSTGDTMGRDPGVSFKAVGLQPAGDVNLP

[3] = target: cysteines in MDA-MB-231 and Ramos cells (Homo sapiens, UniProt Q93009); conditions: for isoTOP-ABPP ratio Q93009_C223: 200 μM, insitu
[4] = target: T3, cysteines in MDA-MB-231 and Ramos cells (Homo sapiens, UniProt Q09161); conditions: for isoTOP-ABPP ratio Q09161_C44: 200 μM, insitu
T3 sequence (Q09161 1-790): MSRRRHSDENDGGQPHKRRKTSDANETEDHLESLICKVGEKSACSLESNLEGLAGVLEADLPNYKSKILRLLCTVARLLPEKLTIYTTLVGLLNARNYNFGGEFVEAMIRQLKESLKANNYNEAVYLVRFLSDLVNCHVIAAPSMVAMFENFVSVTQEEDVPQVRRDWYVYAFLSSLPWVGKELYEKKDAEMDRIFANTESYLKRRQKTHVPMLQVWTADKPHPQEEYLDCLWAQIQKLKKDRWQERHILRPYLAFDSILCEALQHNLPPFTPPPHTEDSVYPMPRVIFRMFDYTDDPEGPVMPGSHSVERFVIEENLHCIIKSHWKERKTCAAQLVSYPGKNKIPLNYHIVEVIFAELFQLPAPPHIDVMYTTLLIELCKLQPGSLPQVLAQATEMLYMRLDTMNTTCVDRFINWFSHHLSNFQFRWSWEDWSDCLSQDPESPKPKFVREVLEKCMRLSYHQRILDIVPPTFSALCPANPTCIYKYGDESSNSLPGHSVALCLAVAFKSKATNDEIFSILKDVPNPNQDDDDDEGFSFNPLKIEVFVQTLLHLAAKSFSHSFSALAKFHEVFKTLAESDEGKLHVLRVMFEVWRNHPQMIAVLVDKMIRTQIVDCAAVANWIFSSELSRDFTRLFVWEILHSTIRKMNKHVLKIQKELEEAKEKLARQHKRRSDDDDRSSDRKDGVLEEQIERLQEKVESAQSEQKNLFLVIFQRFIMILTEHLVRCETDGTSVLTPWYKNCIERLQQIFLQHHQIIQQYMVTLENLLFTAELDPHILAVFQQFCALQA

[5] = target: T4, cysteines in MDA-MB-231 and Ramos cells (Homo sapiens, UniProt Q9HAV7)
T4 sequence (Q9HAV7 28-217): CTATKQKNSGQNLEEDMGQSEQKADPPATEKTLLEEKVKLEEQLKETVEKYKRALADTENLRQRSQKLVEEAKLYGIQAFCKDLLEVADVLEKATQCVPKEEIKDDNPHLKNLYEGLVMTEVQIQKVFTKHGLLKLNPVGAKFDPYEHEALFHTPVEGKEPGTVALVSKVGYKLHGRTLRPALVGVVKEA

[6] = target: T5, cysteines in MDA-MB-231 and Ramos cells (Homo sapiens, UniProt P10599)
T5 sequence (P10599 1-105): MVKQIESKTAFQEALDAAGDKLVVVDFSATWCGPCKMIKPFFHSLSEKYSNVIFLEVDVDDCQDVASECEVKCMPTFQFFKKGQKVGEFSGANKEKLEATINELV

[7] = target: T6, cysteines in MDA-MB-231 and Ramos cells (Homo sapiens, UniProt P52597)
T6 sequence (P52597 1-415): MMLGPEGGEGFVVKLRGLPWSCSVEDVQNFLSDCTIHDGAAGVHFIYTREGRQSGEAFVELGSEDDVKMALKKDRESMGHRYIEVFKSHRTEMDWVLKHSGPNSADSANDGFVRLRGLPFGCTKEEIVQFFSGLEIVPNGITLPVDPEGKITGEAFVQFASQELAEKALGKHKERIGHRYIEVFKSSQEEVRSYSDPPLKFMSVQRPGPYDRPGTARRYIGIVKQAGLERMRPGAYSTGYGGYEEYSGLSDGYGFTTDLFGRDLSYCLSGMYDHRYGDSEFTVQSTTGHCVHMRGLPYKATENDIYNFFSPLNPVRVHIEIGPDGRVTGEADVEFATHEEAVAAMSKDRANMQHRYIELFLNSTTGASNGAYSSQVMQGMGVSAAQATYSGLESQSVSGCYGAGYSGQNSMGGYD

[8] = target: T7, cysteines in MDA-MB-231 and Ramos cells (Homo sapiens, UniProt Q9BVC5); conditions: for isoTOP-ABPP ratio Q9BVC5_C10: 200 μM, insitu
T7 sequence (Q9BVC5 1-232): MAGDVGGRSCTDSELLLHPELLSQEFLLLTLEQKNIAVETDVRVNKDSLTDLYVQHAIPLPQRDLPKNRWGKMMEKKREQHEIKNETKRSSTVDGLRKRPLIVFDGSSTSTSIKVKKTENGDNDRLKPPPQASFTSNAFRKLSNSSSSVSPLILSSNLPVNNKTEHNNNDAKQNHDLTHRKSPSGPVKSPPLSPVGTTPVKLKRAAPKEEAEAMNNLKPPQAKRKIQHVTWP

[9] = target: cysteines in MDA-MB-231 and Ramos cells (Homo sapiens, UniProt P38606)
cysteines in MDA-MB-231 and Ramos cells (Homo sapiens, UniProt P38606), sequence (P38606 whole entry): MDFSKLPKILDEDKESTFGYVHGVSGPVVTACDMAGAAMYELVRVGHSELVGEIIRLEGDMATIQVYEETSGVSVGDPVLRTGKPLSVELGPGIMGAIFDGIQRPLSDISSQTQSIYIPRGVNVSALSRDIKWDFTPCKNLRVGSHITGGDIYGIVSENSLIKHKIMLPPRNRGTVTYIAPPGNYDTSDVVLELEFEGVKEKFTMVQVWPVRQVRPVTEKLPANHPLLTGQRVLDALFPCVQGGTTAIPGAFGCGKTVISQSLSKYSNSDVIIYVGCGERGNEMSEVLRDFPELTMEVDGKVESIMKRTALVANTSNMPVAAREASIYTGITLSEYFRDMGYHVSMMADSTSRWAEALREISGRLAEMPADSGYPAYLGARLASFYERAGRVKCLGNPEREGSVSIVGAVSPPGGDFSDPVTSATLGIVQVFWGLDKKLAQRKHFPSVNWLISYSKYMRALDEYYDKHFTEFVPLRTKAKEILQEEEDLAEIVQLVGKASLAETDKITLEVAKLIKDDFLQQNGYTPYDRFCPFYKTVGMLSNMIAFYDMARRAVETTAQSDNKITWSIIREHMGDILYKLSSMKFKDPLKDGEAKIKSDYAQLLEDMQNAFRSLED

cysteines in MDA-MB-231 and Ramos cells (Homo sapiens, UniProt Q93009), sequence (Q93009 whole entry): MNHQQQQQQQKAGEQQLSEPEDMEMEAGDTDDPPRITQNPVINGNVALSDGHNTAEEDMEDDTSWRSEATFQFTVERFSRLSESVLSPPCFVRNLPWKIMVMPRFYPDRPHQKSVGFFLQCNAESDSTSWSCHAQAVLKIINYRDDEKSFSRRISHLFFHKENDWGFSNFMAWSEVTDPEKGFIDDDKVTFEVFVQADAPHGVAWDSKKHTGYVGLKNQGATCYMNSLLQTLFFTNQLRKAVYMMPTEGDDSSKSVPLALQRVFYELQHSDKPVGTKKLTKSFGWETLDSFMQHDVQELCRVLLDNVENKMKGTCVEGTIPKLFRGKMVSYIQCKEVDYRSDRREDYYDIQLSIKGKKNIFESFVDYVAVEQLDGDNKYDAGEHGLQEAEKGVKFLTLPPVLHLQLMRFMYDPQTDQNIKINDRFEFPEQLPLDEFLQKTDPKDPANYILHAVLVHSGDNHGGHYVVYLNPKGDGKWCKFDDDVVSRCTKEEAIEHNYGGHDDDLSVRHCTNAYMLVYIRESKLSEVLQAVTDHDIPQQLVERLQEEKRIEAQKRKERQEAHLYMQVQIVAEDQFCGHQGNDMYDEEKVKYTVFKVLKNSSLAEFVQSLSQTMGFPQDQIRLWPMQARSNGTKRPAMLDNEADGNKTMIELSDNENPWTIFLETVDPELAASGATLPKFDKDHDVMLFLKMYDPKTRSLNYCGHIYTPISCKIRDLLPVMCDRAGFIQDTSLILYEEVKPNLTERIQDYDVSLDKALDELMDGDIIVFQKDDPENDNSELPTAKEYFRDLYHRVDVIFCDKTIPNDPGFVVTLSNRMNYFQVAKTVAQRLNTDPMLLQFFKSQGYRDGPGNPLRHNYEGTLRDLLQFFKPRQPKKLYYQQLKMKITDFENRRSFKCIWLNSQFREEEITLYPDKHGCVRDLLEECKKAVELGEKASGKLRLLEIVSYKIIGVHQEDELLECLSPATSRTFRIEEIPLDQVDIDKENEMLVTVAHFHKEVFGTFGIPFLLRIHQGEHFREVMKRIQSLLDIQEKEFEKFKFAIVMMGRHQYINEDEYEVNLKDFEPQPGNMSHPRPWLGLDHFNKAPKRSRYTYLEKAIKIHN

Compound	isoTOP-ABPP ratio Q99757_C90 ([1]; 200 μM, insitu, 231)	isoTOP-ABPP ratio O95229_C54 ([2]; 200 μM, insitu, 231)	isoTOP-ABPP ratio Q93009_C223 [3]; 231	isoTOP-ABPP ratio Q09161_C44 [4]; 231	isoTOP-ABPP ratio P10599_C32 ([6]; 200 μM, insitu, 231)	isoTOP-ABPP ratio P52597_C267 ([7]; 200 μM, insitu, 231)	isoTOP-ABPP ratio Q9BVC5_C10 [8]; 231	isoTOP-ABPP ratio P38606_C138 ([9]; 200 μM, insitu, 231)	isoTOP-ABPP ratio Q9HAV7_C124 ([5]; 200 μM, insitu, 231)	isoTOP-ABPP ratio P52597_C267 ([7]; 200 μM, insitu, ramos)	other results
COc1ccc(C2CC(c3cccs3)=NN2C(=O)CCl)cc1 (centres unmarked) [compound 4]											isoTOP-ABPP reactivity Q99757_C90 TXN2 ([1]; 100 μM in situ 231): 3.6; isoTOP-ABPP reactivity O95229_C54 ZWINT ([2]; 100 μM in situ 231): 12.4; isoTOP-ABPP reactivity Q93009_C223 USP7 ([3]; 100 μM in situ 231): 6.8; isoTOP-ABPP reactivity Q09161_C44 NCBP1 ([4]; 100 μM in situ 231): 1.8; isoTOP-ABPP reactivity Q9HAV7_C124 GRPEL1 ([5]; 100 μM in situ 231): 1.7; isoTOP-ABPP reactivity P10599_C32 TXN ([6]; 100 μM in situ 231): 3.3; isoTOP-ABPP reactivity P52597_C267 HNRNPF ([7]; 100 μM in situ 231): 20.0; isoTOP-ABPP reactivity Q9BVC5_C10 C2orf49 ([8]; 100 μM in situ 231): 3.3; isoTOP-ABPP reactivity P38606_C138 ATP6V1A ([9]; 100 μM in situ 231): 20.0
O=C(CCl)Nc1cccc2ncccc12 [compound 51]	5.0	1.0	1.0	1.2	13.9	1.3	1.0	10.6			
CC1CCc2ccccc2N1C(=O)CCl (centres unmarked) [compound 45]	6.7		20.0	2.5	5.7	4.1	3.4		2.1		
O=C(CCl)N1CCN(S(=O)(=O)c2ccccc2F)CC1 [compound 10]		2.3	2.5	12.4	3.8	2.5	3.1	20.0	1.0	2.4	
O=C(CCl)N1CCN(CC(=O)N2CCOCC2)CC1 [compound 29]										1.2	isoTOP-ABPP ratio Q99757_C90 ([1]; 200 μM, insitu, ramos): 1.6; isoTOP-ABPP ratio O95229_C54 ([2]; 200 μM, insitu, ramos): 1.2; isoTOP-ABPP ratio Q93009_C223 ([3]; ramos): 1.0; isoTOP-ABPP ratio Q09161_C44 ([4]; ramos): 1.1; isoTOP-ABPP ratio Q9HAV7_C124 ([5]; 200 μM, insitu, ramos): 1.0; isoTOP-ABPP ratio P10599_C32 ([6]; 200 μM, insitu, ramos): 1.9; isoTOP-ABPP ratio Q9BVC5_C10 ([8]; ramos): 1.8
O=C(CCl)N1CCC(Cc2ccccc2)CC1 [compound 9]											isoTOP-ABPP reactivity Q99757_C90 TXN2 ([1]; 200 μM, insitu, 231): 20.0; isoTOP-ABPP reactivity O95229_C54 ZWINT ([2]; 200 μM, insitu, 231): 3.7; isoTOP-ABPP reactivity Q9HAV7_C124 GRPEL1 ([5]; 200 μM, insitu, 231): 4.7; isoTOP-ABPP reactivity P10599_C32 TXN ([6]; 200 μM, insitu, 231): 20.0; isoTOP-ABPP reactivity P52597_C267 HNRNPF ([7]; 200 μM, insitu, 231): 3.2; isoTOP-ABPP reactivity P38606_C138 ATP6V1A ([9]; 200 μM, insitu, 231): 20.0
